Test results from US20110152313A1 (MACQUARIE UNIVERSITY, priority 2008, published 2011).

Experiments:
Assay in all cases: kinase binding screen (kinase-tagged T7 phage, qPCR), % Ctrl
MAP3K15 = target: T1, MAP3K15 (Homo sapiens, UniProt Q6ZN16)
T1 sequence (Q6ZN16 1-1313): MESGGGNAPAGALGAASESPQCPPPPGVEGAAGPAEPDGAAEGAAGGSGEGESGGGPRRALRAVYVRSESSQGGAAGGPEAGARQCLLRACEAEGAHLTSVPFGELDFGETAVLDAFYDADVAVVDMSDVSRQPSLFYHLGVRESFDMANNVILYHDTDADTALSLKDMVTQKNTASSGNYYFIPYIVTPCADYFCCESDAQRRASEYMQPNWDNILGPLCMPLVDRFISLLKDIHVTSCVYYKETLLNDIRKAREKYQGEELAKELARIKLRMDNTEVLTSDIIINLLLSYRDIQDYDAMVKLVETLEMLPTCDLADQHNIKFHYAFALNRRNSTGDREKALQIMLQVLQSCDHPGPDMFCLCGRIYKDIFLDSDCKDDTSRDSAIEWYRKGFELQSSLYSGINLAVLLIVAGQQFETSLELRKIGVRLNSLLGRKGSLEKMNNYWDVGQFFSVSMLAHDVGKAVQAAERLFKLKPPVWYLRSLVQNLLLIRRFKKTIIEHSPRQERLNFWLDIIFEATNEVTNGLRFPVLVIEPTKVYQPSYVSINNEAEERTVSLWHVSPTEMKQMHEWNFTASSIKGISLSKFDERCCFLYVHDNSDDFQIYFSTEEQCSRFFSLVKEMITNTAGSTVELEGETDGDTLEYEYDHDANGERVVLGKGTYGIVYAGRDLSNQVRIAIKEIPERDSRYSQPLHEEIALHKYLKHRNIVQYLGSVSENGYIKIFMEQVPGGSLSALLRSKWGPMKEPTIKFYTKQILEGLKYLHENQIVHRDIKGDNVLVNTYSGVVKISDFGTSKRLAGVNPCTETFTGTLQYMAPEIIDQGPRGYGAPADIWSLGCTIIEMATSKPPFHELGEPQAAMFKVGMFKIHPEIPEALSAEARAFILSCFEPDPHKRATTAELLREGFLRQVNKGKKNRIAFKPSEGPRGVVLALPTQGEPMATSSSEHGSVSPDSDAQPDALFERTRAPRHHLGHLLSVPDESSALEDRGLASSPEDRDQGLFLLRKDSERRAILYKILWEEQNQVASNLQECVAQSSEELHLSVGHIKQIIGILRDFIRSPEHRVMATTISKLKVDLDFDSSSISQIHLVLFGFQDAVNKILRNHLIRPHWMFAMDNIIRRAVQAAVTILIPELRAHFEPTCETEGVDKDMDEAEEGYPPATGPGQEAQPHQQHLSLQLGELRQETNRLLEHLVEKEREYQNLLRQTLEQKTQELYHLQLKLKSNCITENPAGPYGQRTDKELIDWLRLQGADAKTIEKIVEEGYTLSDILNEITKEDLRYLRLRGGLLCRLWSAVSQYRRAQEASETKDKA
How it was run: (§1)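 Steps: grow T7 phage displaying kinase in BL21-derived E. coli; clarify lysate; combine with ligand-liganded, blocked beads and compound (single concentration, diluted from 40× DMSO stock); elute; quantify kinase by qPCR.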

CDK7 = CDK7 (Homo sapiens, UniProt P50613)
Sequence of CDK7 (P50613 whole entry): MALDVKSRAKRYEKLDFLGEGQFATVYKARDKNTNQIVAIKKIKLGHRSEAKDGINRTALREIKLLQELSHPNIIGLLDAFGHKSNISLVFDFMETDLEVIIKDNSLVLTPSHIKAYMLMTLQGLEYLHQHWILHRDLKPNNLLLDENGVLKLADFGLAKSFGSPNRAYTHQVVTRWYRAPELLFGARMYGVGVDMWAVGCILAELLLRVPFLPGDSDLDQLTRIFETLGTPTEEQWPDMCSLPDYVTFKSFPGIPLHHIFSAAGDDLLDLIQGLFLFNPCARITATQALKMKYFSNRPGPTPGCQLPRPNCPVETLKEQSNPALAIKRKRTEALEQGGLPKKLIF
How it was run: as §1

DRAK1 = target: T2, DRAK1 (Homo sapiens, UniProt Q9UEE5)
T2 sequence (Q9UEE5 1-414): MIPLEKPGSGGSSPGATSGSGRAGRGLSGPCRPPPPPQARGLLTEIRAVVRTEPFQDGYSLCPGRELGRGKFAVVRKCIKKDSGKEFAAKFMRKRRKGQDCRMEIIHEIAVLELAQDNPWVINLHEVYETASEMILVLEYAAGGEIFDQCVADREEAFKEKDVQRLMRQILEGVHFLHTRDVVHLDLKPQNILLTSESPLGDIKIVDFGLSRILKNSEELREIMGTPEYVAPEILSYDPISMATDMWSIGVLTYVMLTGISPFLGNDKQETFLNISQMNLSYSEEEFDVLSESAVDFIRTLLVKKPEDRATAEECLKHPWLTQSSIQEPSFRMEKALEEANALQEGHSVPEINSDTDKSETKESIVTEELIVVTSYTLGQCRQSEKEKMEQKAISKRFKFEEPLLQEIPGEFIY
How it was run: as §1

GRK1 = target: T3, GRK1 (Homo sapiens, UniProt Q15835)
T3 sequence (Q15835 1-563): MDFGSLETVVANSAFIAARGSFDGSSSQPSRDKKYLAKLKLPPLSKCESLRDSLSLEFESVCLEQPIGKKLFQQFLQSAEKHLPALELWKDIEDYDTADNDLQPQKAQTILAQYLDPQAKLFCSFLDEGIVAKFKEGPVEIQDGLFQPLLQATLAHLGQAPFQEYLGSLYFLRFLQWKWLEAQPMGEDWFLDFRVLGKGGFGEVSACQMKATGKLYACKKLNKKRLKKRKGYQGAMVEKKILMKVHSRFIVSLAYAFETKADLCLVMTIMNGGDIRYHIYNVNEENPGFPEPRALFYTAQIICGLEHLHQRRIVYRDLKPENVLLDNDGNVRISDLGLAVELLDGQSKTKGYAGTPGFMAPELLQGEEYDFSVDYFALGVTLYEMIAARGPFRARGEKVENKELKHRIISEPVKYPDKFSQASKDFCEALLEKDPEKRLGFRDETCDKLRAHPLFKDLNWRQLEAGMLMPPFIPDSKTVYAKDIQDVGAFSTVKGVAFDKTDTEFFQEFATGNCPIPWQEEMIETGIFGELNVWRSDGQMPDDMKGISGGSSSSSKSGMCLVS
How it was run: as §1

SBK1 = SBK1 (Homo sapiens, UniProt Q52WX2)
Sequence of SBK1 (Q52WX2 whole entry): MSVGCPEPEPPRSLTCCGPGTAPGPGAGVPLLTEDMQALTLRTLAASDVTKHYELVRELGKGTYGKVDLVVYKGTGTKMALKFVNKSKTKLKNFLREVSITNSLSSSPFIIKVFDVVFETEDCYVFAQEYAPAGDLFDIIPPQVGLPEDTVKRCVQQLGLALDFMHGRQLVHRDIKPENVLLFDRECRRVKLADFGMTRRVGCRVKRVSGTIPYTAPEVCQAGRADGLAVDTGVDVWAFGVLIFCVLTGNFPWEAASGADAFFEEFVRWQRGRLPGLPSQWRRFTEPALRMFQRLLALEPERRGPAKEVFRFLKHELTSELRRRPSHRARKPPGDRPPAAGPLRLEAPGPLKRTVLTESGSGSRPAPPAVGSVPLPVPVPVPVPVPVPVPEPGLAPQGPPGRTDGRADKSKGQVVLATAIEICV
How it was run: as §1

CAMK2G = CAMK2G (Homo sapiens, UniProt Q13555)
Sequence of CAMK2G (Q13555 whole entry): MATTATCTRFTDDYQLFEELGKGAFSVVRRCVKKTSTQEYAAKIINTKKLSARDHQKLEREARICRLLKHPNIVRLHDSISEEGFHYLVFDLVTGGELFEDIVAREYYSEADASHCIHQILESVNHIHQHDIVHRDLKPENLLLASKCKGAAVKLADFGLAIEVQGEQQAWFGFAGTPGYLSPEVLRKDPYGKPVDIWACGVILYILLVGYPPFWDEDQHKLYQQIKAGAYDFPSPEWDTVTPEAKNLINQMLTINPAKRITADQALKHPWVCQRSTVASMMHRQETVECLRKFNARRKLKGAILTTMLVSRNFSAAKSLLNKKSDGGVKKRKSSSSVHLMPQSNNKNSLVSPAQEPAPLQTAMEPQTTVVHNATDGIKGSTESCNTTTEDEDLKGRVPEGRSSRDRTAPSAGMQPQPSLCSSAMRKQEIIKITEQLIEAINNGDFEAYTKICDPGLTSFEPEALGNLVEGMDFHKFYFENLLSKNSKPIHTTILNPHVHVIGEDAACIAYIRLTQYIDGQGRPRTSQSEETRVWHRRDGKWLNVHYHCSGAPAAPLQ
How it was run: as §1

SMILES | remaining activity at 1 µM (MAP3K15) [%] | remaining activity at 10 µM (MAP3K15; 10 μM) [%] | remaining activity at 1 µM (CDK7) [%] | remaining activity at 10 µM (CDK7; 10 μM) [%] | remaining activity at 1 µM (DRAK1) [%] | remaining activity at 10 µM (DRAK1; 10 μM) [%] | remaining activity at 1 µM (GRK1) [%] | remaining activity at 10 µM (GRK1; 10 μM) [%] | remaining activity at 1 µM (SBK1) [%] | remaining activity at 10 µM (SBK1; 10 μM) [%] | remaining activity at 1 µM (CAMK2G) [%] | remaining activity at 10 µM (CAMK2G; 10 μM) [%]
Nc1nc2c(-c3cc(Br)c(Br)[nH]3)nccc2[nH]1 [Ageladine A, ageladine A, reference compound] | 100 | 78 | 79 | 66 | 78 | 86 | 80 | 85 | 87 | 77 | 100 | 78
Nc1nc2c(-c3ccccn3)nccc2[nH]1 [drawing 35, 4-(pyrid-2-yl)-1H-imidazo[4,5-c]pyridin-2-amine] | 40 |  | 30 |  | 56 |  | 49 |  | 53 |  | 20 | 
Nc1nc2c(-c3cnc4ccccc4c3)nccc2[nH]1 [drawing 36, 4-(quinolin-3-yl)-1H-imidazo[4,5-c]pyridin-2-amine] | 94 |  | 100 |  | 100 |  | 86 |  | 100 |  | 100 | 
